According to US20220273660A1, “MEK INHIBITOR FOR TREATMENT OF STROKE” (EDVINCE AB, priority 2019, published 2022):
Entries after “also recorded” stand apart in the source; their conditions may differ.

Key:
[1] = tested on: rat middle cerebral arteries (ETB receptor); experiment: 48 h in vitro organ culture of MCAs, wire myography (S6c, ET-1); type: cell-based
Method: MCAs from naïve rats were dissected and segments (1.5 mm) were incubated for 48 h in Dulbecco's modified Eagle's medium contained L-glutamine (584 mg/L) supplemented with penicillin (100 U/ml) and streptomycin ([…]) at humidified 5% CO2 atmosphere. Before incubation, 4 different concentrations of trametinib (5 μM, 1 μM, 0.1 μM or 0.03 μM), dissolved in 0.1% dimethyl sulfoxide (DMSO) in NaCl, or 0.1% DMSO in NaCl (vehicle) was added.

[2] = tested on: rat subarachnoid haemorrhage model; experiment: Rotating pole test after SAH, intraperitoneal treatment; type: in vivo; conditions: SAH + i.p. treatment, 48 hours post-SAH
Method: Gross sensorimotor function was evaluated using a rotating pole test, including a baseline evaluation on the day before induction of SAH. Briefly, movement across a 10-rpm rotating pole (45 mm diameter, 150 cm length) was evaluated with a cage at the end that contain the rat's own bedding material (“smells like home”). Rat performance was scored according to the following definitions: Low, the animal is unable to cross the pole without falling off; High, the animal can traverse the entire pole without falling off. All animals were trained to traverse the pole before surgery. Pre-SAH and on day 1 and 2 after surgery, each animal was scored twice for left and right rotation respectively, i.e. 4 counts per animal. Animals were graded by personnel blinded to the experimental groups of the animals. Data are shown percentage as % high score count/total score count.
For the intraperitoneal treatment (i.p) the compound was dissolved in 10% cremophor EL (Kolliphor EL) and 10% PEG400 in NaCl, which also served as vehicle. The total dose was administered as two treatments (6 hours and 24 hours). Animals were given 2.5 ml isotonic saline s.c. to avoid dehydration, immediately after surgery and in conjunction with the treatments.

[3] = tested on: rat subarachnoid haemorrhage model; experiment: Rat SAH model, intrathecal treatment, myograph of basilar arteries; type: in vivo
Method: For contractility measurements, both incubated BAs (ex vivo) and BAs after surgical procedure (in vivo) were cut into segments and mounted on a pair of metal wires (40 μm) in a myograph bath. The arteries from OC were mounted the same way after 48 hours in media. One wire was attached to a micro-meter screw which allows for fine adjustments of the distance between the wires, controlling the vascular tone.
The arterial segments were exposed two or three times with 60 mM K^+, by exchanging the buffer with a 60 mM K^+ buffer solution. To maintain equal osmolarity, a proportional amount of Na^+ had been removed from the buffer. An absolute cut-off was set at 2.0 mN K^+max for inclusion of arterial segments from rats that underwent the surgical procedure. Endothelium function was evaluated with the addition of 5-HT (3.10^−7 M) followed by carbachol (10^−5 M). For arteries from the OC the protocol was as followed: first a cumulative concentration-response curve to sarafotoxin 6C (S6c, 10^−14-10^−7 M), followed by a concentration-response curve to endothelin-1 (ET-1, 10^−14-10^−7 M). At peak ET-1 (10^−7 M), the buffer was changed to a Ca^2+-free buffer containing 10^−7 M ET-1 and nimodipine (L-type of voltage dependent Ca^2+ channel entry blocker, 10^−7 M). […] When vasodilation was investigated arteries was precontracted with U46619 (1.10^−7-3.10^−7 M) or K^+ (41 mM) and cumulative concentration-response curves was performed by adding calcitonin gene-related peptide (CGRP, 10^−12-10^−7 M), carbachol (10^−10-10^−5 M) or SNP (10^−11-10^−4 M).
If there was only one curve above the cut-off, the concentration-response curve to ET-1 was prioritized. Segments with the highest K^+ response were generally allocated to the concentration-response curve to ET-1. […] The Ca^2+ free buffer solution had similar composition as above, but 1.5 mM CaCl2 was exchanged with 0.03 mM EDTA.
Contractile responses of each segment were adjusted according to the length of the artery and are expressed as mN/mm (Nm^−1). […] To compare ET-1 sensitivity, arteries were normalized to the percentage of the individual vessel ET-1max. When the artery reached maximum contraction before the last concentration was added, the curves were constrained to the max contraction. The relative log IC50/log EC50 is the concentration corresponding to a response midway between the estimates of the lower and upper plateaus. The Emax is the maximal contraction in the concentration response curve and ET-1max is the maximal contraction to ET-1. All quantitative data is presented as mean±standard error of the mean (SEM), unless otherwise stated.
Rats were anesthetized and prepared for cisternal infusion of autologous blood, which simulates a SAH. Sham-operated rats went through the same procedure, omitting the intracisternal blood injection of 300 μL. At the end of the procedure, a PinPort (PNP3F22, Instech, US) was placed at the end of the ICP catheter to provide access for intrathecal (i.t.) injectable treatments by a PinPort injector (PNP-3M, Instech, US). 24 hours post-surgery, the rats received s.c. injections of Carprofen (Norodyl, 5 mg/kg) (Scanvet, Denmark) for analgesia.
The intrathecal (i.t.) treatment volumes were estimated for a cerebrospinal fluid (CSF) volume of approximately 90 μL (21) and the total dose was administered as three treatments (4 hours, 10 hours and 24 hours) through the PinPort in the ICP catheter placed in the cisterna magna during the surgical procedure. The first and third injections were given under fixation of the rat. […] Animals were given 2.5 ml isotonic saline s.c. to avoid dehydration, immediately after surgery and in conjunction with the 10 hours and 24 hours treatments.

[4] = tested on: rat subarachnoid hemorrhage model; experiment: In vivo SAH, intraperitoneal trametinib, ET-1 concentration-response in BAs (Example 11)
Method: Thirty-two rats were operated for this study. Animals were treated intraperitoneally with 250 μl/body weight of a 1 mM solution of trametinib (Selleckchem), yielding a final dose of 95 μg/body weight, diluted in 10% cremophor and 10% PEG400 in NaCl. Animals in the vehicle and sham group were treated with 250 μl/body weight 10% cremophor and 10% PEG400 in NaCl. Treatment was intraperitoneally administered either at 1 h and 24 h or 6 h and 24 h post surgery. Animals were terminated 48 h after surgery by CO2 anesthesia and decapitation.

**Q.** How did the “increased ET-1-induced vasoconstriction of MCAs” value ([1]; 0.1 μM, 48 h OC) turn out when CC(=O)Nc1cccc(-n2c(=O)n(C3CC3)c(=O)c3c(Nc4ccc(I)cc4F)n(C)c(=O)c(C)c32)c1 [trametinib] was run?
**A.** The value was “total blockage of the ETB receptor subtype response; also recorded: significantly inhibit; also recorded: inhibitory effect”.

**Q.** And the “S6c-induced contraction of MCAs” value ([1]; 48 h OC, 5, 1, 0.1 or 0.03 μM, concentration-dependent)?
**A.** Its value is “significantly inhibited”.

**Q.** And the “rotating pole Score48 h (% high score count/total score count)” value [2]?
**A.** The value was 100%.

**Q.** What about the “K+ responses compared to i.t. vehicle” value ([3]; SAH + i.t. treatment) of the same compound?
**A.** The value was “higher K^+ responses”.

**Q.** And the “contraction at low ET-1 concentrations (10^-12.5-10^-11.0 M), ET-1max normalised, vs SAH+vehicle” value ([3]; SAH + i.t. treatment)?
**A.** Its value is “significantly reduced”.

**Q.** And the “nimodipine insensitive ET-1max contraction” value ([3]; SAH + i.t. treatment, Ca2+ curve, 10^-7 M nimodipine)?
**A.** Its value is 1.8±0.5 Nm^−1.

**Q.** What about the “contractile response of BAs to 60 mM K+” value ([3]; SAH + i.t. treatment, all BAs incl. below cut-off) of the same compound?
**A.** The value was 5.00±0.29 Nm^−1.

**Q.** And the endothelium function ([3]; animals treated in vivo i.t. after SAH)?
**A.** The endothelium function was “No significant changes”.

**Q.** What about the “increased ET-1-induced concentration-response curve in BAs after SAH” value ([4]; i.p. 1 mM at 1 and 24 h post-SAH) of the same compound?
**A.** The value was “significantly inhibited”.

**Q.** And the “increased ET-1-induced concentration-response curve in BAs after SAH” value ([4]; i.p. 1 mM at 6 and 24 h post-SAH)?
**A.** Its value is “significantly inhibited”.
